Data taken from patent US7429564B2, “Oral insulin therapy” (Emisphere Technologies, Inc., priority 2002, dated 2008).

What was measured:
[1] = monkey, in vivo
[2] = set-up: species or system rats; details: rat, in vivo, po
Experimental: Similarly, for a fixed oral dose of 4-CNAB, insulin absorption increases with increasing doses of insulin. Oral insulin absorption was evaluated in rats at varying doses of both insulin and 4-CNAB. […] The mean peak serum insulin levels were 31, 44, 85, and 132 μU/mL respectively. Insulin absorption was dose dependent and increased as the dose of insulin increased. […] The mean peak serum insulin levels were 9, 39, 103, and 157 μU/mL, respectively. Insulin absorption was dose dependent and increased as the dose of 4-CNAB increased.

[3] = Delivery agent plasma concentrations in humans after oral delivery agent capsules; format: in vivo, human
Experimental: Delivery agents 1-3 were investigated for their ability to penetrate the GI mucosa. The plasma concentration of each delivery agent was measured in human subjects after oral administration of delivery agent loaded capsules as a measure of each delivery agent's penetration efficiency.
Blood sampling for plasma delivery agent concentration determination (2 mL in sodium heparin tube) were drawn 15 minutes before dosing, and at 5, 10, 15, 30, and 45 minutes and 1, 1.5, 2, 3, 4, 6, 8, and 12 hours post-dose (14 samples per treatment) for delivery agent measurements in all treatment groups.
Two 18-gauge IV lines were situated prior to dosing; one for blood sampling, and the other for potential infusion of 20% glucose for subjects in groups 2 and 3. The subjects in group 1 only had one cannula inserted. The blood samples were centrifuged at 3000 rpm for a period of fifteen minutes at a temperature from about 2° C. to 8° C., within one hour of sample collection. Using a plastic pipette and without disturbing the red cell layer, the plasma from the collection tube was pipetted in duplicate for each analysis, blood glucose, Human Insulin, C-peptide, delivery agent into pre-labeled polypropylene tubes. The samples were stored at −70° C. until analysis.
The indicated doses were ingested by healthy human volunteers and the plasma concentrations of the delivery agents were monitored over time and the area under the curve (AUC) calculated. […] Similarly, oral administration of 800 mg of delivery agent number 3 produced more than a 23 fold greater penetration of the GI mucosa in humans than did oral administration of 750 mg of delivery agent 2 having n equal to 9 alkyl.

[4] = Nonclinical pharmacokinetic studies of 4-CNAB; format: in vivo; details: mice, rats and monkeys
Experimental: (§1) The present invention comprising compositions of insulin and the delivery agent 4-CNAB was evaluated for safety and toxicity in a nonclinical program that included pharmacological screening, pharmacokinetic profiling, and toxicity assessments in rats and monkeys.

Genotoxicity studies = details: four studies
Experimental: as §1

serum glucose = assay: Effective clinical dose of delivery agent in humans (delivery efficiency); format: in vivo, human
Experimental: Next, delivery agents 1-3 were compared for the ability to efficiently transport an active agent across the GI mucosa in a biologically active form by determining the relationship between delivery agent dose, dose of active agent and the glucose response. The effective dose of delivery agent necessary to deliver a therapeutic dose of active agent and produce a therapeutic effect was measured. For delivery agent 3, the active agent was insulin, and the therapeutic effect was determined by the ability of the delivery agent/insulin combination to lower serum glucose by at least 10% within one hour post administration. For delivery agents 1 and 2, the active agent was heparin, and the therapeutic effect was determined by […]

Example 6: safety = assay: Example 6: safety; set-up: species or system human; details: in vivo
Experimental: Safety was monitored by vital sign measurements and documentation of adverse events (AE) during all visits throughout the study.
Safety data included AEs, laboratory data, vital signs, physical examinations, and ECGs. Vital signs (systolic and diastolic blood pressure, respiration rate, heart rate, and body temperature) for each treatment group were summarized at baseline (defined as the −30 min time point) and at the end of each study day.

[5] = in vivo, sc
Excerpt: Safety assessments included physical examinations, medical history, vital signs, 12-lead electrocardiogram (ECG) monitoring, laboratory evaluations and checking for adverse events. Activity parameters included blood glucose, insulin, C-peptide, and 4-CNAB plasma concentration measurements.

Molecule: oral insulin alone: recombinant human zinc insulin given orally without delivery agent
- Absolute bioavailability of insulin [1]: ≤ 1%
- Change in serum insulin levels [2]: did not result in any significant increases in serum insulin levels

Molecule: O=C(O)CCCNC(=O)c1ccc(Cl)cc1O [4-CNAB, 4-[(4-chloro, 2-hydroxybenzoyl)amino]butanoic acid]
- Fold greater penetration of the GI mucosa vs delivery agent 1 ([3]; humans, 800 mg vs 750 mg oral): approximately 13.5 fold
- Fold greater penetration of the GI mucosa vs delivery agent 2 ([3]; humans, 800 mg vs 750 mg oral): > 23 fold
- AUC ([3]; plasma, oral capsules, 800 mg, healthy human volunteers): 47500 ng·h/mL
- Absorption after oral administration [4]: absorbed rapidly following oral administration, and subsequently cleared from the body
- Genotoxicity findings (Genotoxicity studies): no positive findings
- Effective clinical dose of delivery agent (serum glucose; active agent insulin, lowers serum glucose by at least 10% within one hour): 200 Mg
- Fold more efficient in facilitating transit across the GI mucosa vs delivery agent 1 (serum glucose; effective dose ratio): approximately 12 fold
- Fold more efficient in facilitating transport across the GI mucosa vs delivery agent 2 (serum glucose; effective dose ratio): 7.5 fold

Molecule: SC insulin: human regular insulin injected subcutaneously (Humulin R or equivalent; Calbiochem insulin in the rat studies)
- Adverse events / tolerability (Example 6: safety): No adverse events were observed
- Hypoglycemia occasions requiring rescue treatment [5]: twelve
- Treatment-related adverse events [5]: sixteen events
